Source: patent US10167262B2, “Herbicidal substituted 3-arylpyrazoles” (FMC CORPORATION, priority 2014, dated 2019)

Assays:
Test in all cases: Test E pre-/postemergence greenhouse test, plant response rating 0-100
Type in all cases: in vivo
[1] = test system: large (Lg) crabgrass (Digitaria sanguinalis); conditions: Preemergence, scale 0 to 100
[2] = test system: giant foxtail (Setaria faberii); conditions: Preemergence, scale 0 to 100
[3] = test system: green foxtail (Setaria viridis); conditions: Preemergence, scale 0 to 100
[4] = test system: goosegrass (Eleusine indica); conditions: Preemergence, scale 0 to 100
[5] = test system: johnsongrass (Sorghum halepense); conditions: Preemergence, scale 0 to 100
[6] = test system: Italian ryegrass (Lolium multiflorum); conditions: scale 0 to 100; for Plant response rating, Ryegrass, Italian: Postemergence; for Ryegrass, Italian plant response rating: Preemergence
In short: (§1)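 Sow seeds in silt loam and treat preemergence; at the same time, spray postemergence on 1- to 4-leaf plants in peat/vermiculite mix. Use a non-phytotoxic solvent plus surfactant as carrier. Hold 14–21 days in greenhouse, then score visually 0–100 against controls.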

[7] = test system: barnyardgrass (Echinochloa crus-galli); conditions: scale 0 to 100; for Plant response rating, Barnyardgrass: Postemergence; for Barnyardgrass plant response rating: Preemergence
In short: as §1

kochia (Kochia scoparia) = conditions: Preemergence, scale 0 to 100
In short: as §1

[8] = test system: ragweed (common ragweed, Ambrosia elatior); conditions: Preemergence, scale 0 to 100
In short: as §1

[9] = test system: smartweed (ladysthumb smartweed, Polygonum persicaria); conditions: Postemergence, 250 g ai/ha; scale 0 to 100
[10] = test system: surinam grass (Brachiaria decumbens); conditions: Preemergence, scale 0 to 100
In short: as §1

[11] = test system: velvetleaf (Abutilon theophrasti); conditions: Preemergence, scale 0 to 100
In short: as §1

[12] = test system: morningglory (Ipomoea coccinea); conditions: Preemergence, scale 0 to 100
[13] = test system: yellow nutsedge (Cyperus esculentus); conditions: Preemergence, scale 0 to 100
[14] = test system: smartweed (ladysthumb smartweed, Polygonum persicaria); conditions: scale 0 to 100; for Smartweed plant response rating: Preemergence

**Q.** How did the “Crabgrass, Large plant response rating” value ([1]; 31 g ai/ha) turn out when `O=C(c1ccccc1)c1cn(S(=O)(=O)CC(F)(F)F)nc1-c1cc(Cl)cc(Cl)c1` [Compound 3] was run?
**A.** Its value is 0.

**Q.** What about the “Crabgrass, Large plant response rating” value ([1]; 62 g ai/ha) of the same molecule?
**A.** The value was 0.

**Q.** And the “Crabgrass, Large plant response rating” value ([1]; 125 g ai/ha)?
**A.** Its value is 0.

**Q.** And the “Crabgrass, Large plant response rating” value ([1]; 250 g ai/ha)?
**A.** The value was 0.

**Q.** What about the “Crabgrass, Large plant response rating” value ([1]; 500 g ai/ha) of the same molecule?
**A.** Its value is 0.

**Q.** What about the “Foxtail, Giant plant response rating” value ([2]; 31 g ai/ha) of the same molecule?
**A.** The value was 0.

**Q.** What about the “Foxtail, Giant plant response rating” value ([2]; 62 g ai/ha) of the same molecule?
**A.** Its value is 0.

**Q.** And the “Foxtail, Giant plant response rating” value ([2]; 125 g ai/ha)?
**A.** Its value is 0.

**Q.** What about the “Foxtail, Giant plant response rating” value ([2]; 250 g ai/ha) of the same molecule?
**A.** The value was 15.

**Q.** And the “Foxtail, Giant plant response rating” value ([2]; 500 g ai/ha)?
**A.** The value was 35.

**Q.** And the “Foxtail, Green plant response rating” value ([3]; 31 g ai/ha)?
**A.** The value was 0.

**Q.** What about the “Foxtail, Green plant response rating” value ([3]; 62 g ai/ha) of the same molecule?
**A.** The value was 0.

**Q.** What about the “Foxtail, Green plant response rating” value ([3]; 125 g ai/ha) of the same molecule?
**A.** The value was 0.

**Q.** And the “Foxtail, Green plant response rating” value ([3]; 250 g ai/ha)?
**A.** The value was 0.

**Q.** And the “Foxtail, Green plant response rating” value ([3]; 500 g ai/ha)?
**A.** Its value is 0.

**Q.** And the “Goosegrass plant response rating” value ([4]; 31 g ai/ha)?
**A.** Its value is 0.

**Q.** What about the “Goosegrass plant response rating” value ([4]; 62 g ai/ha) of the same molecule?
**A.** The value was 0.

**Q.** What about the “Goosegrass plant response rating” value ([4]; 125 g ai/ha) of the same molecule?
**A.** Its value is 0.

**Q.** And the “Goosegrass plant response rating” value ([4]; 250 g ai/ha)?
**A.** Its value is 35.

**Q.** And the “Goosegrass plant response rating” value ([4]; 500 g ai/ha)?
**A.** The value was 35.

**Q.** What about the “Johnsongrass plant response rating” value ([5]; 31 g ai/ha) of the same molecule?
**A.** Its value is 0.

**Q.** And the “Johnsongrass plant response rating” value ([5]; 62 g ai/ha)?
**A.** Its value is 0.

**Q.** And the “Johnsongrass plant response rating” value ([5]; 125 g ai/ha)?
**A.** Its value is 0.

**Q.** What about the “Johnsongrass plant response rating” value ([5]; 250 g ai/ha) of the same molecule?
**A.** The value was 35.

**Q.** What about the “Johnsongrass plant response rating” value ([5]; 500 g ai/ha) of the same molecule?
**A.** The value was 35.

**Q.** And the “Plant response rating, Ryegrass, Italian” value ([6]; 31 g ai/ha)?
**A.** Its value is 0.

**Q.** What about the “Plant response rating, Ryegrass, Italian” value ([6]; 62 g ai/ha) of the same molecule?
**A.** The value was 0.

**Q.** What about the “Plant response rating, Ryegrass, Italian” value ([6]; 125 g ai/ha) of the same molecule?
**A.** The value was 0.

**Q.** What about the “Plant response rating, Ryegrass, Italian” value ([6]; 250 g ai/ha) of the same molecule?
**A.** Its value is 0.

**Q.** What about the “Plant response rating, Ryegrass, Italian” value ([6]; 500 g ai/ha) of the same molecule?
**A.** Its value is 0.

**Q.** And the “Ryegrass, Italian plant response rating” value ([6]; 31 g ai/ha)?
**A.** The value was 0.

**Q.** And the “Ryegrass, Italian plant response rating” value ([6]; 62 g ai/ha)?
**A.** The value was 0.

**Q.** What about the “Ryegrass, Italian plant response rating” value ([6]; 125 g ai/ha) of the same molecule?
**A.** Its value is 0.

**Q.** What about the “Ryegrass, Italian plant response rating” value ([6]; 250 g ai/ha) of the same molecule?
**A.** Its value is 0.

**Q.** What about the “Ryegrass, Italian plant response rating” value ([6]; 500 g ai/ha) of the same molecule?
**A.** Its value is 0.

**Q.** What about the “Plant response rating, Barnyardgrass” value ([7]; 31 g ai/ha) of the same molecule?
**A.** Its value is 0.

**Q.** And the “Plant response rating, Barnyardgrass” value ([7]; 62 g ai/ha)?
**A.** The value was 0.

**Q.** And the “Plant response rating, Barnyardgrass” value ([7]; 125 g ai/ha)?
**A.** The value was 0.

**Q.** What about the “Plant response rating, Barnyardgrass” value ([7]; 250 g ai/ha) of the same molecule?
**A.** Its value is 0.

**Q.** What about the “Plant response rating, Barnyardgrass” value ([7]; 500 g ai/ha) of the same molecule?
**A.** The value was 0.

**Q.** What about the “Barnyardgrass plant response rating” value ([7]; 31 g ai/ha) of the same molecule?
**A.** The value was 0.

**Q.** And the “Barnyardgrass plant response rating” value ([7]; 62 g ai/ha)?
**A.** The value was 0.

**Q.** And the “Barnyardgrass plant response rating” value ([7]; 125 g ai/ha)?
**A.** The value was 0.

**Q.** And the “Barnyardgrass plant response rating” value ([7]; 250 g ai/ha)?
**A.** Its value is 0.

**Q.** What about the “Barnyardgrass plant response rating” value ([7]; 500 g ai/ha) of the same molecule?
**A.** Its value is 0.

**Q.** And the “Kochia plant response rating” value (kochia (Kochia scoparia); 31 g ai/ha)?
**A.** The value was 0.

**Q.** What about the “Kochia plant response rating” value (kochia (Kochia scoparia); 62 g ai/ha) of the same molecule?
**A.** The value was 20.

**Q.** And the “Kochia plant response rating” value (kochia (Kochia scoparia); 125 g ai/ha)?
**A.** Its value is 25.

**Q.** What about the “Kochia plant response rating” value (kochia (Kochia scoparia); 250 g ai/ha) of the same molecule?
**A.** The value was 50.

**Q.** What about the “Kochia plant response rating” value (kochia (Kochia scoparia); 500 g ai/ha) of the same molecule?
**A.** Its value is 70.

**Q.** And the “Ragweed plant response rating” value ([8]; 31 g ai/ha)?
**A.** Its value is 0.

**Q.** And the “Ragweed plant response rating” value ([8]; 62 g ai/ha)?
**A.** The value was 0.

**Q.** What about the “Ragweed plant response rating” value ([8]; 125 g ai/ha) of the same molecule?
**A.** The value was 0.

**Q.** And the “Ragweed plant response rating” value ([8]; 250 g ai/ha)?
**A.** The value was 100.

**Q.** And the “Ragweed plant response rating” value ([8]; 500 g ai/ha)?
**A.** Its value is 95.

**Q.** What about the “Plant response rating, Smartweed” value [9] of the same molecule?
**A.** Its value is 65.

**Q.** And the “Surinam Grass plant response rating” value ([10]; 31 g ai/ha)?
**A.** The value was 0.

**Q.** And the “Surinam Grass plant response rating” value ([10]; 62 g ai/ha)?
**A.** The value was 0.

**Q.** What about the “Surinam Grass plant response rating” value ([10]; 125 g ai/ha) of the same molecule?
**A.** Its value is 0.

**Q.** And the “Surinam Grass plant response rating” value ([10]; 250 g ai/ha)?
**A.** The value was 0.

**Q.** What about the “Surinam Grass plant response rating” value ([10]; 500 g ai/ha) of the same molecule?
**A.** The value was 0.

**Q.** And the “Velvetleaf plant response rating” value ([11]; 31 g ai/ha)?
**A.** The value was 20.

**Q.** What about the “Velvetleaf plant response rating” value ([11]; 62 g ai/ha) of the same molecule?
**A.** Its value is 20.

**Q.** What about the “Velvetleaf plant response rating” value ([11]; 125 g ai/ha) of the same molecule?
**A.** The value was 35.

**Q.** And the “Velvetleaf plant response rating” value ([11]; 250 g ai/ha)?
**A.** Its value is 40.

**Q.** What about the “Velvetleaf plant response rating” value ([11]; 500 g ai/ha) of the same molecule?
**A.** The value was 80.

**Q.** And the “Morningglory plant response rating” value ([12]; 31 g ai/ha)?
**A.** The value was 0.

**Q.** What about the “Morningglory plant response rating” value ([12]; 62 g ai/ha) of the same molecule?
**A.** The value was 0.

**Q.** What about the “Morningglory plant response rating” value ([12]; 125 g ai/ha) of the same molecule?
**A.** The value was 0.

**Q.** What about the “Morningglory plant response rating” value ([12]; 250 g ai/ha) of the same molecule?
**A.** The value was 0.

**Q.** What about the “Morningglory plant response rating” value ([12]; 500 g ai/ha) of the same molecule?
**A.** Its value is 0.

**Q.** What about the “Nutsedge, Yellow plant response rating” value ([13]; 62 g ai/ha) of the same molecule?
**A.** Its value is 50.

**Q.** And the “Nutsedge, Yellow plant response rating” value ([13]; 125 g ai/ha)?
**A.** The value was 35.

**Q.** And the “Nutsedge, Yellow plant response rating” value ([13]; 500 g ai/ha)?
**A.** The value was 75.

**Q.** What about the “Plant response rating, Smartweed” value ([14]; Postemergence, 500 g ai/ha) of the same molecule?
**A.** Its value is 90.

**Q.** And the “Smartweed plant response rating” value ([14]; 31 g ai/ha)?
**A.** Its value is 0.

**Q.** What about the “Smartweed plant response rating” value ([14]; 62 g ai/ha) of the same molecule?
**A.** The value was 0.

**Q.** What about the “Smartweed plant response rating” value ([14]; 125 g ai/ha) of the same molecule?
**A.** Its value is 0.

**Q.** What about the “Smartweed plant response rating” value ([14]; 250 g ai/ha) of the same molecule?
**A.** Its value is 0.

**Q.** What about the “Smartweed plant response rating” value ([14]; 500 g ai/ha) of the same molecule?
**A.** Its value is 0.
